Values of other authors as cited in patent publication EP4541846A1, “ENCAPSULANT FILM COMPOSITION, AND ENCAPSULANT FILM COMPRISING SAME” (LG Chem, Ltd., priority 2022, dated 2024).
Structures can show the parent of a compound that is named as a salt.

Details: marked by acute toxicity, oral/acute toxicity, percutaneous/skin corrosivity/skin irritation/severe eye damage/eye irritation/dermal hypersensitivity, or the like

Row | Structure (SMILES) | harmfulness/dangerousness classification in SDS
1 | C=CCOC(=O)OC(=O)OCC=C [diallyl decarbonate] | harmful
2 | C=CCOC(=O)/C=C/C(=O)OCC=C [diallyl fumarate] | harmful
3 | C=CCOC(=O)/C=C\C(=O)OCC=C [diallyl maleate] | harmful
